Experimental findings from US10799605B2 (3B PHARMACEUTICALS GMBH, priority 2014, dated 2020) are described below.

The target in test [1] is T1, NTR1 (Homo sapiens (Human), UniProt P30989). The experiment in a line: Functional Ca2+ mobilisation assay (example part II). It is filed as cell-based. To be noted: antagonist assay. The source says:
Ca^2+ ions are usually kept at nanomolar levels in the cytosol of cells, and act in a number of signal transduction pathways as second messengers. […] Changes in calcium ion concentration in standard assay protocols can be readily detected with fluorescent dyes that emit light when changes in intracellular Ca2^+ ion concentration occur. Given the transient nature of these responses, they are often read with instrumentation that has ‘inject and read’ capability.
(§1) HT29 or NTR1-expressing HEK293 cells were trypsinized and seeded into black flat clear-bottom 96-well plates (Corning, Amsterdam, The Netherlands) at 6×10^5 cells per well. After 24 h incubation at 37° C. and 5% CO2, cells were washed twice with wash buffer (130 mM NaCl, 5 mM KCl, 10 mM Hepes, 2 mM CaCl2, 10 mM Glucose, pH 7.4) and loaded with 100 μl of Ca5 dye (Molecular Devices, Biberach, Germany) for 1 h at 37° C. and 5% CO2. For agonist assays, serial dilutions of agonistic substances were added to the cells loaded with dye and the change of the fluorescent signal was recorded continually for approx. 90 s using a FlexStation II (Molecular Devices, Biberach, Germany). Addition of wash buffer served as a control. Thus, EC50 concentrations for each compound were computed and provided a measure for the potency of the substance. For antagonist assays, cells loaded with 100 μl of Ca5-dye were pre-incubated with serial dilutions of antagonistic substances for 30 min, before the EC80-concentration of agonist was added to the cells and the change of the fluorescent signal was recorded continually for approx. 90 s. Thus, IC50 concentrations were computed for each compound and provided a measure for the inhibitory activity of the compounds at the NTR1.

For test [2], the target named is T1, NTR1. Nature of the test: Radioligand binding assay NTR1 (example part II). To be noted: 0.05 nM 125I-(Tyr3-neurotensin), 60 min at 4° C.; read-out: IC50 [nM] RLB. How it is done:
(§2) In order to determine the binding affinity of compounds comprising a radiolabel for NTR1, a radioligand binding assay was carried out. A radioligand is a radioactive biochemical substance that is used for diagnosis or for research-oriented study of cellular receptor systems of the body. In […] systems it is often used to quantify the binding of a test molecule to the binding site of radioligand. The higher the affinity of the molecule, the more radioligand is displaced from the binding site. The amount of bound radioligand can be measured by scintillation counting and thereby quantified. This assay is commonly used to calculate binding constants of molecules to receptors.
(§3) The NTR1 radioligand binding assay was performed by Cerep (Celle l'Evescault, France; Catalog reference 0109) according to Vita et al., FEBS Lett., 1993, 317, 139-142. NTR1 was prepared from CHO cells recombinantly expressing the human receptor and incubated with 0.05 nM ^125I-(Tyr^3-neurotensin) and serial dilutions of the test compounds. […] The result for each test compound is expressed as IC50 concentration and provides a measure for the affinity of the test compound for NTR1.

The target of test [3] is T1, NTR1. Nature of the test: Radioligand binding assay NTR1 (example part I). How it is done:
as §2, §3

In test [4] the target is T1, NTR1. The experiment in a line: Functional Ca2+ mobilisation assay (example part I). Format: cell-based.
Description: Ca^2+ ions are usually kept at nanomolar levels in the cytosol of cells, and act in a number of signal transduction pathways as second messengers. […] Changes in calcium ion concentration in standard assay protocols can be readily detected with fluorescent dyes that emit light when changes in intracellular Ca^2+ ion concentration occur. Given the transient nature of these responses, they are often read with instrumentation that has ‘inject and read’ capability.
as §1, with “conjugate” for “compound”, “conjugates” for “compounds”

T1 sequence (P30989 whole entry): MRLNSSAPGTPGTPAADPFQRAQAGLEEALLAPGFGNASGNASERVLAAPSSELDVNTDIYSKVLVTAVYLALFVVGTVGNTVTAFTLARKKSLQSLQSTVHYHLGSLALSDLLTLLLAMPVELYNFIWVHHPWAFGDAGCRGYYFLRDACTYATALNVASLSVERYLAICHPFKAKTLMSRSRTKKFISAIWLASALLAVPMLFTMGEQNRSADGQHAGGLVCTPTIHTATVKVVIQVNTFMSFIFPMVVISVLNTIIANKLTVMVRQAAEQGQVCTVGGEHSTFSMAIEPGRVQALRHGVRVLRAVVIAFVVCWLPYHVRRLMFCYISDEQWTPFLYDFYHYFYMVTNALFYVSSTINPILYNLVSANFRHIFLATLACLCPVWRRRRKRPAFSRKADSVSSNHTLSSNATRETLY

Turning to `CNCCCN(C)CCCN(C)C(=O)c1ccc(-n2nc(C(=O)NC3(C(=O)O)C4CC5CC(C4)CC3C5)cc2-c2c(OC)cccc2OC)c(C(C)C)c1` (stereo not drawn) [(III), 2-({5-(2,6-Dimethoxy-phenyl)-1-[2-isopropyl-4-(methyl-{3-[methyl-(3-methylamino-propyl)-amino]-propyl}-carbamoyl)-phenyl]-1H-pyrazole-3-carbonyl}-amino)-adamantane-2-carboxylic acid], the concentration for half-maximal inhibition (IC50) at NTR1 [1] came to 7.54 nM; at NTR1 [2], 0.87 nM.

For `COc1cccc(OC)c1-c1cc(C(=O)NC2(C(=O)O)C3CC4CC(C3)CC2C4)nn1-c1ccc(C(=O)N(C)CCCN(C)CCCN(C)C(=O)CCCC(=O)NCCCOCCOCCOCCCNC(=O)CCC(=O)N[C@@H](CCCCNC(=O)CN2CCN(CC(=O)O)CCN(CC(=O)O)CCN(CC(=O)O)CC2)C(=O)NCCCOCCOCCOCCCNC(=O)CCC(=O)NCCCC(=O)N[C@H](CCCNC(=N)N)C(=O)N[C@@H](CCCNC(=N)N)C(=O)N2CCC[C@H]2C(=O)N[C@@H](Cc2ccc(O)cc2)C(=O)N[C@H](C(=O)N[C@@H](CC(C)C)C(=O)O)C(C)(C)C)cc1C(C)C` (stereo partly drawn) [(17), 1206-Glutar-Ttds-Lys(DOTA)-Ttds-GABA-arg-Arg-Pro-Tyr-Tle-Leu-OH], the values for the IC50 on NTR1 [3] and on NTR1 [4] were 0.32 nM and 3.4 nM, respectively. The molecule also yielded an EC50 at NTR1 [4] of 7 nM. Also, on NTR1 [4] (agonist assay), the “shape of EC50 curve” value is “bell-shaped EC50 curves”.

`COc1cccc(OC)c1-c1cc(C(=O)NC2(C(=O)O)C3CC4CC(C3)CC2C4)nn1-c1ccc(C(=O)N(C)CCCN(C)CCCN(C)C(=O)CCCC(=O)NCCCOCCOCCOCCCNC(=O)CCC(=O)NCCCOCCOCCOCCCNC(=O)CCC(=O)NCCCOCCOCCOCCCNC(=O)CCC(=O)N[C@@H](CC(N)=O)C(=O)N[C@@H](C)C(=O)N[C@H](C(=O)N2CCC[C@H]2C(=O)N[C@@H](CC(N)=O)C(=O)N[C@@H](CC(C)C)C(=O)N[C@@H](CCCNC(=N)N)C(=O)NCC(=O)N[C@@H](CC(=O)O)C(=O)N[C@@H](CC(C)C)C(=O)N[C@@H](CCC(N)=O)C(=O)N[C@H](C(=O)N[C@@H](CC(C)C)C(=O)N[C@@H](C)C(=O)N[C@@H](CCC(N)=O)C(=O)N[C@@H](CCCCN)C(=O)N[C@H](C(=O)N[C@@H](C)C(=O)N[C@@H](CCCNC(=N)N)C(=O)N[C@H](C(=O)NCCCC(=O)NCCCOCCOCCOCCCNC(=O)CCC(=O)N[C@@H](CCCCNC(=O)CN2CCN(CC(=O)O)CCN(CC(=O)O)CCN(CC(=O)O)CC2)C(N)=O)[C@@H](C)O)C(C)C)C(C)C)C(C)C)cc1C(C)C` (stereo partly drawn) [(24)] came in with a concentration for half-maximal inhibition (IC50) on NTR1 [3] of 9.9 nM. Also, at NTR1 [4], the EC50 was > 50000 nM and inhibition was half-maximal at 38 nM (IC50).

On NTR1 [3], `COc1cccc(OC)c1-c1cc(C(=O)NC2(C(=O)O)C3CC4CC(C3)CC2C4)nn1-c1ccc(C(=O)N(C)CCCN(C)CCCN(C)C(=O)CCCC(=O)NCCCC[C@H](NC(=O)CCC(=O)NCCCOCCOCCOCCCNC(=O)CCC(=O)NCCCOCCOCCOCCCNC(=O)CCC(=O)NCCCOCCOCCOCCCNC(=O)[C@H](CCCCNC(=O)CN2CCN(CC(=O)O)CCN(CC(=O)O)CCN(CC(=O)O)CC2)NC(=O)CCC(=O)NCCCOCCOCCOCCCNC(=O)CCC(=O)NCCCOCCOCCOCCCNC(=O)CCC(=O)NCCCOCCOCCOCCCNC(=O)CCCC(=O)N(C)CCCN(C)CCCN(C)C(=O)c2ccc(-n3nc(C(=O)NC4(C(=O)O)C5CC6CC(C5)CC4C6)cc3-c3c(OC)cccc3OC)c(C(C)C)c2)C(N)=O)cc1C(C)C` (stereo partly drawn) [(15), 1206-Glutar-Ttds3-Lys(DOTA)-Ttds3-(ε-Lys-NH2)-Glutar-1206] had an IC50 of 4.7 nM. For the same molecule, at NTR1 [4], the half-maximal effective concentration (EC50) is > 50000 nM and the IC50 is 2.3 nM.

On to `COc1cccc(OC)c1-c1cc(C(=O)NC2(C(=O)O)C3CC4CC(C3)CC2C4)nn1-c1ccc(C(=O)N(C)CCCN(C)CCCN(C)C(=O)CCCC(=O)NCCCOCCOCCOCCCNC(=O)CCC(=O)NCCCOCCOCCOCCCNC(=O)CCC(=O)NCCCOCCOCCOCCCNC(=O)CCC(=O)N[C@@H](CCCCNC(=O)CN2CCN(CC(=O)O)CCN(CC(=O)O)CCN(CC(=O)O)CC2)C(=O)NCCCOCCOCCOCCCNC(=O)CCC(=O)NCCCOCCOCCOCCCNC(=O)CCC(=O)NCCCOCCOCCOCCCNC(=O)CCC(=O)NCCCC(=O)N[C@H](CCCNC(=N)N)C(=O)N[C@@H](CCCNC(=N)N)C(=O)N2CCC[C@H]2C(=O)N[C@@H](Cc2ccc(O)cc2)C(=O)N[C@H](C(=O)N[C@@H](CC(C)C)C(=O)O)C(C)(C)C)cc1C(C)C` (stereo partly drawn) [(18), 1206-Glutar-Ttds3-Lys(DOTA)-Ttds3-GABA-arg-Arg-Pro-Tyr-Tle-Leu-OH], for which the values for the IC50 at NTR1 [3] and against NTR1 [4] were 2.7 nM and 3.8 nM, respectively. Besides, the concentration for a half-maximal effect (EC50) at NTR1 [4] was > 50000 nM.

With `COc1cccc(OC)c1-c1cc(C(=O)NC2(C(=O)O)C3CC4CC(C3)CC2C4)nn1-c1ccc(C(=O)N(C)CCCN(C)CCCN(C)C(=O)CCCC(=O)NCCCOCCOCCOCCCNC(=O)CCC(=O)N[C@@H](CCCCNC(=O)CN2CCN(CC(=O)O)CCN(CC(=O)O)CCN(CC(=O)O)CC2)C(=O)NCCCOCCOCCOCCCNC(=O)CCC(=O)NCCCC(=O)N[C@@H](CC(N)=O)C(=O)N[C@@H](C)C(=O)N[C@H](C(=O)N2CCC[C@H]2C(=O)N[C@@H](CC(N)=O)C(=O)N[C@@H](CC(C)C)C(=O)N[C@@H](CCCNC(=N)N)C(=O)NCC(=O)N[C@@H](CC(=O)O)C(=O)N[C@@H](CC(C)C)C(=O)N[C@@H](CCC(N)=O)C(=O)N[C@H](C(=O)N[C@@H](CC(C)C)C(=O)N[C@@H](C)C(=O)N[C@@H](CCC(N)=O)C(=O)N[C@@H](CCCCN)C(=O)N[C@H](C(=O)N[C@@H](C)C(=O)N[C@@H](CCCNC(=N)N)C(=O)N[C@H](C(N)=O)[C@@H](C)O)C(C)C)C(C)C)C(C)C)cc1C(C)C` (stereo partly drawn) [(21)], on NTR1 [3], the IC50 was determined as 10 nM. Moreover, at NTR1 [4], the concentration for a half-maximal effect (EC50) is > 50000 nM and the IC50 was 18 nM.

Molecule `COc1cccc(OC)c1-c1cc(C(=O)NC2(C(=O)O)C3CC4CC(C3)CC2C4)nn1-c1ccc(C(=O)N(C)CCCN(C)CCCN(C)C(=O)CCCC(=O)NCCCOCCOCCOCCCNC(=O)CCC(=O)NCCCC[C@H](NC(=O)CCC(=O)NCCCOCCOCCOCCCNC(=O)CCCC(=O)N(C)CCCN(C)CCCN(C)C(=O)c2ccc(-n3nc(C(=O)NC4(C(=O)O)C5CC6CC(C5)CC4C6)cc3-c3c(OC)cccc3OC)c(C(C)C)c2)C(=O)NCCCOCCOCCOCCCNC(=O)CCC(=O)N[C@@H](CC(N)=O)C(=O)N[C@@H](C)C(=O)N[C@H](C(=O)N2CCC[C@H]2C(=O)N[C@@H](CC(N)=O)C(=O)N[C@@H](CC(C)C)C(=O)N[C@@H](CCCNC(=N)N)C(=O)NCC(=O)N[C@@H](CC(=O)O)C(=O)N[C@@H](CC(C)C)C(=O)N[C@@H](CCC(N)=O)C(=O)N[C@H](C(=O)N[C@@H](CC(C)C)C(=O)N[C@@H](C)C(=O)N[C@@H](CCC(N)=O)C(=O)N[C@@H](CCCCN)C(=O)N[C@H](C(=O)N[C@@H](C)C(=O)N[C@@H](CCCNC(=N)N)C(=O)N[C@H](C(=O)NCCCC(=O)NCCCOCCOCCOCCCNC(=O)CCC(=O)N[C@@H](CCCCNC(=O)CN2CCN(CC(=O)O)CCN(CC(=O)O)CCN(CC(=O)O)CC2)C(N)=O)[C@@H](C)O)C(C)C)C(C)C)C(C)C)cc1C(C)C` (stereo partly drawn) [(25)] returned an IC50 on NTR1 [3] of 7.5 nM. In addition, at NTR1 [4], the concentration for a half-maximal effect (EC50) was > 50000 nM and the midpoint of inhibition, the IC50, lay at 12 nM.
